# Source: patent US20020086281A1, “Detection of neurodegenerative diseases, in vitro screening assays” (priority 1998, published 2002)
# How the values were obtained:
# HD fibroblasts = assay: Microphysiometry of HD cells; assay type: cell-based, human; conditions: HD cells compared with control cells; FIG. 3
# [1] = test system: LHON 3460 mutation lymphoblasts; assay: Microphysiometry of LHON cells, 3460 mutation; assay type: cell-based, human; conditions: LHON 3460 mutation cells compared with control; FIG. 4A-4E
# Excerpt: (§1) The rate at which cells excrete protons (the acidification rate) is closely linked to the rate at which they convert nutrients to energy. Because energy metabolism is coupled to ATP consumption, any event that perturbs ATP levels, such as receptor activation or calcium influx, causes a change in energy metabolism and, therefore, an alteration in proton excretion. In addition, receptor activation may also directly affect proton excretion by altering Na/H exchange. A typical microphysiometer, such as the Cytosensor™ (Molecular Devices), uses a silicon-based sensor to measure the rate of proton excretion from 10^4-10^6 cells. Cells are contained in a 3 μL flow chamber in aqueous contact with the pH-sensitive surface of a light-sensitive potentiometric sensor. Flow of medium (with low buffering capacity) and test compounds are determined by a series of microprocessor-controlled pumps. The extracellular acidification rate is determined by measuring the decrease in pH that occurs as acidic metabolites accumulate during brief halts in the flow of medium. The degree of stimulation of the basal acidification is calculated and plotted as a per cent of the basal acidification rate. The sensor takes a voltage measurement that is linearly related to pH. Typically, during a 30-60 sec halt in flow, pH will decrease less than 0.1 pH unit. Reproducible and robust responses are obtained to metabolic inhibitors, growth factors and ionophores in lymphoblast lines. Because virtually any manipulation alters proton excretion, it is relatively easy to determine the types of stimuli to which disease cell lines respond abnormally.
# (§2) LHON: Previous work at Emory University has identified causative mitochondrial DNA mutations in LHON patients. Well-characterized LHON patient cell lines have been generated and banked. These cell lines have been characterized by molecular genetic, cellular respiration and enzymology studies. The patient cell lines were obtained from the Emory University Clinical Research Center (Emory University, Atlanta, Ga.).
# (§3) Patient lymphocytes are immortalized using the technique of Neitzel H, Human Genetics 73:320-326 (1986). In brief, the lymphocytes are removed from the buffy coat layer following Histopaque density separation. […]
# (§4) Lymphoblasts are suspended in agarose entrapment solution at a density of 5×10^5 cells/10 μl, then are plated onto chamber inserts, and allowed to solidify for 20 minutes. […] The rate of acidification is calculated as the slope of a linear least squares fit to the relation of pH versus time during the pump's off period. […]
# [2] = test system: LHON 14459 mutation lymphoblasts; assay: Microphysiometry of LHON cells, 14459 mutation; assay type: cell-based, human; conditions: LHON 14459 mutation cells compared with control; FIG. 4A-4E
# Excerpt: as §1, §2, §3, §4
# sporadic AD lymphoblasts = assay: Microphysiometry (acidification rate) of sporadic AD lymphoblasts; assay type: cell-based, human; conditions: sporadic AD lymphoblasts compared with controls; FIG. 1A-1D
# Excerpt: as §1, with “Because virtually any manipulation alters proton excretion, it is relatively easy to determine the types of stimuli to which disease cell lines respond abnormally.” left out
# Alzheimer's disease: Lymphoblast cell lines were generated from blood samples obtained from patients followed in the Emory Alzheimer's Disease Center. All patients have been evaluated by detailed neurological and neuropsychometric examinations. […]
# as §4
# [3] = test system: PC12 cells transfected with two mutant forms of PS1; assay type: cell-based, Rat; conditions: PC12 cells transfected with mutant presenilin-1; FIG. 2A-2D
# Excerpt: as §1
# Rat adrenal pheochromocytoma PC 12 cells were stably transfected with PS1 cDNA cloned behind the CMV promoter in pcDNA3. See, e.g., Lah, J. J. et al., J. Neurosci. […]
# as §4
# PD lymphoblasts = assay: Microphysiometry of PD lymphoblasts; assay type: cell-based, human; conditions: PD lymphoblasts compared with controls; FIG. 5A-5D
# Excerpt: as §1, with “abnormally. […]” for “abnormally.”
# as §4
# control cells = assay: Microphysiometry of control cells, ionomycin response after rotenone; assay type: cell-based, human; conditions: control cells exposed to rotenone; FIG. 3
# Excerpt: as §1, with “Cells are contained in a 3 μL flow chamber in aqueous contact with the pH-sensitive surface of a light-sensitive potentiometric sensor.” left out, “The sensor takes a voltage measurement that is linearly related to pH. Typically, during a 30-60 sec halt in flow, pH will decrease less than 0.1 pH unit. Reproducible and robust responses are obtained to metabolic inhibitors, growth factors and ionophores in lymphoblast lines. Because virtually any manipulation alters proton excretion, it is relatively easy to determine the types of stimuli to which disease cell lines respond abnormally.” left out
# as §4
Compound,microphysiometric response to the calcium ionophore (HD fibroblasts),microphysiometric response to the inhibitor or ionophore [1],microphysiometric response to the inhibitor or ionophore [2],microphysiometric response (stimulation of acidification rate) to the inhibitor (sporadic AD lymphoblasts),microphysiometric response to the inhibitor [3],microphysiometric response to the inhibitor (PD lymphoblasts),reproduction of the HD-type altered response to ionomycin (control cells)
C[C@H](CCC(=O)O)C[C@H](C)C[C@H](C)C(=O)/C=C(\O)[C@H](C)C[C@H](C)C/C=C/[C@@H](C)[C@@H](O)[C@@H](C)[C@@H](O)C[C@@H]1CC[C@@](C)([C@H]2CC[C@@](C)([C@@H](C)O)O2)O1 [ionomycin],abnormal responses,abnormal,abnormal,–,–,–,–
O=C(O)CC(=O)O [malonate],–,–,–,do not differ substantially from controls,normal response,do not differ substantially from controls,–
"O=C(CC(=O)C(F)(F)F)c1cccs1 [TTFA, Thenoyltrifluoroacetone]",–,no difference between control and patient lymphoblast responses,no difference between control and patient lymphoblast responses,–,–,–,–
C=C(C)[C@H]1Cc2c(ccc3c2O[C@@H]2COc4cc(OC)c(OC)cc4[C@@H]2C3=O)O1 [rotenone],–,virtually absent,markedly depressed,markedly blunted,similarly depressed response,markedly blunted,can be reproduced in control cells
antimycin-A,–,markedly depressed,markedly depressed,markedly blunted,–,do not differ substantially from controls,–
CN(C)C(=O)Nc1ccc(Cl)c(Cl)c1 [diuron],–,–,–,–,similarly depressed response,–,–
